According to US8076061B2, “Method and composition for cancer diagnosis and treatment” (Ascentgene, Inc., priority 2007, dated 2011):

Columns and labels:
[1] = test system: PC4-dependent transcription (template pG5HM); assay: In vitro transcription assay reconstituted with purified general transcription factors; type: biochemical
Description: FIGS. 3A, 3B and 3C show the functional analyses of PC4 mutations in different assays.
In vitro transcription assay was reconstituted with purified general transcription factors, including TFIIA, TFIIB, TFIID, TFIIF, TFIIH and RNA polymerase II, either purified from HeLa cells or from a recombinant source. This system can be activated in a PC4 and activator-dependent manner. In addition to the transcription factors, the system also contained one activator-responsive template, a basic template (activator-independent), and ^32P-CTP. After incubation at 30° C. for 1 hr, the newly synthesized RNAs were extracted and analyzed on a denatured polyacrylamide gel and visualized by autoradiography.

[2] = target: PC4 (Homo sapiens, UniProt P53999); assay: Interaction of AH peptide with PC4; type: binding; conditions: 15 amino acid peptide
[3] = test system: ssDNA; assay: Protein array assay (UPA), protein-DNA interaction; type: binding; conditions: FIG. 4F
Description: (§1) The protein array assay is based on the “Universal Protein Array” method, also called UPA [Ge, H. (2000) UPA, a universal protein array system for quantitative detection of protein-protein, protein-DNA, protein-RNA and protein-ligand interactions. Nucleic Acids Res. 28, e3]. Purified proteins were validated, normalized and arrayed on a nitrocellulose sheet. Each spot was arrayed in 1 mm diameter containing 10-100 ng of protein depending on size. Targeted proteins that interacted with the PC4 proteins on the array were detected by specific antibodies such as antibodies against transcription factor TFIIA, Gal4, or Sp1. For protein-DNA interaction, probe DNA was labeled with ^32P-dCTP and the bound DNA was monitored by autoradiography.

[4] = test system: 64 bp dsDNA probe from the adeno major late promoter region; assay: Electrophoresis mobility shift assay (EMSA), DNA binding activity of PC4 proteins; conditions: purified recombinant PC4 mutant vs wild type, FIG. 3B
Description: EMSA was used to determine the ds-DNA binding activity of PC4 protein and was performed in a 20 ul of reaction containing […] of purified PC4 protein and ^32P-labeled 64 bp dsDNA probe from the adeno major late promoter region. After incubated at 4° C. for 1 hr, the reaction mixture was analyzed on an 8% polyacrylamide gel. The mobilized PC4-dsDNA complex was visualized using autoradiography.

[5] = target: T1, transcription factor TFIIA (Homo sapiens, UniProt P52655+P52657); assay: Protein array assay (UPA), interaction with TFIIA; type: binding; conditions: FIG. 4C
T1 sequence (P52655 1-376): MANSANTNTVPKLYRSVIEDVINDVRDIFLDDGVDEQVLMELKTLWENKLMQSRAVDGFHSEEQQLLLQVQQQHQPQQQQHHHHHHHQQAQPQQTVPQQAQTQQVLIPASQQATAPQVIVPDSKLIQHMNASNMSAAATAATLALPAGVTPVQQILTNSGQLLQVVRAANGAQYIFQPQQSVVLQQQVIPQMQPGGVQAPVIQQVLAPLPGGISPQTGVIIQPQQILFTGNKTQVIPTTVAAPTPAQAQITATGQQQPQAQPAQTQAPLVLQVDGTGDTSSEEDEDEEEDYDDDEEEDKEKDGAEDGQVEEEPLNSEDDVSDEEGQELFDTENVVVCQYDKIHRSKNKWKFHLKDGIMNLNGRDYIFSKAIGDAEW
T1 sequence (P52657 1-109): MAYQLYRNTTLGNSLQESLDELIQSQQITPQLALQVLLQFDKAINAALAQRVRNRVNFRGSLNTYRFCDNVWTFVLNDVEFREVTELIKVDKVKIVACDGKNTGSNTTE
Description: as §1

[6] = test system: transcription factor Sp1 (Gal4-Sp1 fusion protein); assay: Protein array assay (UPA), interaction with Sp1; type: binding; conditions: FIG. 4E
Description: as §1

Row | interaction with PC4 (mimics an activation domain) [2] | ssDNA binding activity of PC4 [3] | PC4's DNA binding activity [4] | interaction of PC4 with TFIIA [5] | Substance | transcription activation, PC4-dependent ([1]; AH fused with a Gal4 DNA binding domain) | PC4 transcription activity ([1]; purified recombinant PC4 mutant vs wild type, FIG. 3C) | interaction of PC4 with Sp1 [6]
1 | interacting strongly |  |  |  | ELQEL′QELQALLQQQ (ELQELQELQALLQQQ; AH15) | dramatic transcription activation |  | 
2 |  | critical for the ssDNA binding activity | abolishes | enhances | F77P: recombinant human PC4 protein with single amino acid change F77P |  | abolishes | enhances
